# Biological target: p38α MAP kinase (Homo sapiens, UniProt Q16539)
# Experiment: Assay to determine the inhibition of p38α MAP kinase (phosphorylation of ATF-2, IC50-values)
# Assay type: biochemical
# Conditions: ATF-2 coated microtiter plates, 10 ng activated p38α, 100 μM ATP, 1 h at 37° C.; read-out: IC50, inhibition of the phosphorylation of ATF-2 by p38a MAP kinase
# Experimental: Assay to determine the inhibition of p38α MAP kinase (IC50-values)
# Microtiter plates were coated with the p38 MAP kinase substrate ATF-2 by incubating 50 μl of 20 μg/ml ATF-2 for one hour at 37° C. After the plates were washed three times with water, 50 μl of kinase mixture (=50 mM Tris-HCl, 10 mM MgCl2, 10 mM β-glycerol phosphate, 10 μg/ml BSA, 1 mM DTT, 100 μM ATP, 100 μM […], 10 ng activated p38α) without an with increasing inhibitor concentrations were added into the wells and incubated for one hour at 37° C. The plates were washed three times with water and incubated with an anti-phospho-ATF-2 antibody for one hour at 37°. Thereafter, the plates were again washed three times with water and incubated with a goat, alkaline phosphatase-labeled anti-rabbit IgG, for one hour at 37° C. The plates were washed and incubated with 100 μl of a solution containing the phosphatase substrate 4-nitrophenolphosphate (3 mM 4-NPP, 50 mM NaHCO3, 50 mM MgCl2) for 1.5 hours at 37° C. Formation of 4-nitrophenolate was measured at 405 nm using a microtiter plate reader. Based on the inhibitor-concentration/response curves, IC50-values were determined.
# Sequence of p38α MAP kinase (Q16539 whole entry): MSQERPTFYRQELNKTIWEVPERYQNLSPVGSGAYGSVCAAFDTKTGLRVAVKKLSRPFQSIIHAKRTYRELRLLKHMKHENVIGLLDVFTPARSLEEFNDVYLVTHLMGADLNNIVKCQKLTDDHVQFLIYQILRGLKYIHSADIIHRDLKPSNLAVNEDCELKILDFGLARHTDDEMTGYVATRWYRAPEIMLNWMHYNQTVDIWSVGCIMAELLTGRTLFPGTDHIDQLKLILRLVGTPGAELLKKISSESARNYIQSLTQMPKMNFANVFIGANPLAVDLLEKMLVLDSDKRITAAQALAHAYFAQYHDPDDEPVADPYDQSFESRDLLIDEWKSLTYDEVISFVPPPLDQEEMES
row,IC50,SMILES
1,1000 to 10000 nM,CSc1nc(-c2ccc(F)cc2)c(-c2ccnc(NC3CC(C)(C)NC(C)(C)C3)c2)n1C [Example 3]
2,< 1000 nM,"COCCn1c(SC)nc(-c2ccc(F)cc2)c1-c1ccnc(NC2CC(C)(C)NC(C)(C)C2)c1 [Example 4, {4-[5-(4-Fluoro-phenyl)-3-(2-methoxy-ethyl)-2-methylsulfanyl-3H-imidazol-4-yl]-pyridin-2-yl}-(2,2,6,6-tetramethyl-piperidin-4-yl)-amine]"
3,< 1000 nM,"Cn1c([S+](C)[O-])nc(-c2ccc(F)cc2)c1-c1ccnc(NC2CCC(O)CC2)c1 (centres unmarked) [Example 22, 4-{4-[5-(4-Fluoro-phenyl)-2-methanesulfinyl-3-methyl-3H-imidazol-4-yl]-Pyridin-2-ylamino}-cyclohexanol]"
4,1000 to 10000 nM,"COCCn1c([S+](C)[O-])nc(-c2ccc(F)cc2)c1-c1ccnc(NCC(C)O)c1 (centres unmarked) [Example 21, 1-{4-[5-(4-Fluoro-phenyl)-2-methanesulfinyl-3-(2-methoxy-ethyl)-3H-imidazol-4-yl]-pyridin-2-ylamino}-propan-2-ol]"
5,< 1000 nM,"CSc1nc(-c2ccc(F)cc2)c(-c2ccnc(NC3CCC(O)CC3)c2)n1C (centres unmarked) [Example 15, 4-{4-[5-(4-Fluoro-phenyl)-3-methyl-2-methylsulfanyl-3H-imidazol-4-yl]-pyridin-2-ylamino}-cyclohexanol]"
6,> 10000 nM,COCCn1c([S+](C)[O-])nc(-c2ccc(F)cc2)c1-c1ccnc(NC2CC(C)(C)NC(C)(C)C2)c1 (centres unmarked) [Example 10]
7,> 10000 nM,"Cn1c([S+](C)[O-])nc(-c2ccc(F)cc2)c1-c1ccnc(NC2CC(C)(C)NC(C)(C)C2)c1 (centres unmarked) [Example 9, {4-[5-(4-Fluoro-phenyl)-2-methanesulfinyl-3-methyl-3H-imidazol-4-yl]-pyridin-2-yl}-(2,2,6,6-tetramethyl-piperidin-4-yl)-amine]"
8,> 10000 nM,"CC(O)CNc1cc(-c2c(-c3ccc(F)cc3)nc([S+](C)[O-])n2C)ccn1 (centres unmarked) [Example 20, 1-{4-[5-(4-Fluoro-phenyl)-2-methanesulfinyl-3-methyl-3H-imidazol-4-yl]-pyridin-2-ylamino}-propan-2-ol]"
9,> 10000 nM,"Cn1c([S+](C)[O-])nc(-c2ccc(F)cc2)c1-c1ccnc(NC2CCN(Cc3ccccc3)CC2)c1 (centres unmarked) [Example 11, (1-Benzyl-piperidin-4-yl)-{4-[5-(4-fluoro-phenyl)-2-methanesulfinyl-3-methyl-3H-imidazol-4-yl]-pyridin-2-yl}-amine]"
10,1000 to 10000 nM,"Cn1c([S+](C)[O-])nc(-c2ccc(F)cc2)c1-c1ccnc(NC2CCCCC2O)c1 (centres unmarked) [Example 24, 2-{4-[5-(4-Fluoro-phenyl)-2-methanesulfinyl-3-methyl-3H-imidazol-4-yl]pyridin-2-ylamino}-cyclohexanol]"
11,1000 to 10000 nM,"COCCn1c([S+](C)[O-])nc(-c2ccc(F)cc2)c1-c1ccnc(NC2CCCCC2O)c1 (centres unmarked) [Example 25, 2-{4-[5-(4-Fluoro-phenyl)-2-methanesulfinyl-3-(2-methoxy-ethyl)-3H-imidazol-4-yl]-pyridin-2-ylamino}-cyclohexanol]"
12,< 1000 nM,"COCCn1c([S+](C)[O-])nc(-c2ccc(F)cc2)c1-c1ccnc(NC2CCC(O)CC2)c1 (centres unmarked) [Example 23, 4-{4-[5-(4-Fluoro-phenyl)-2-methanesulfinyl-3-(2-methoxy-ethyl)-3H-imidazol-4-yl]-pyridin-2-ylamino}-cyclohexanol]"
13,> 10000 nM,"CCN1CCCC1CNc1cc(-c2c(-c3ccc(F)cc3)nc([S+](C)[O-])n2C)ccn1 (centres unmarked) [Example 7, (1-Ethyl-pyrrolidin-2-ylmethyl)-{4-[5-(4-fluoro-phenyl)-2-methanesulfinyl-3-methyl-3H-imidazol-4-yl]-pyridin-2-yl}-amine]"

# The next lines start with the compound.
row,SMILES,IC50
1,"CSc1nc(-c2ccc(F)cc2)c(-c2ccnc(NC3CCC(=O)CC3)c2)n1C [Example 27, 4-{4-[5-(4-Fluoro-phenyl)-3-methyl-2-methylsulfanyl-3H-imidazol-4-yl]-pyridin-2-ylamino}-cyclohexanone]",1000 to 10000 nM
2,"CSc1nc(-c2ccc(F)cc2)c(-c2ccnc(NC3CCCCC3O)c2)n1C (centres unmarked) [Example 18, 2-{4-[5-(4-Fluoro-phenyl)-3-methyl-2-methylsulfanyl-3H-imidazol-4-yl]-pyridin-2-ylamino}-cyclohexanol]",< 1000 nM
3,"COCCn1c(SC)nc(-c2ccc(F)cc2)c1-c1ccnc(NCC(C)=O)c1 [Example 26, 1-{4-[5-(4-Fluoro-phenyl)-3-(2-methoxy-ethyl)-2-methylsulfanyl-3H-imidazol-4-yl]-pyridin-2-ylamino}-propan-2-one]",1000 to 10000 nM
4,"CSc1nc(-c2ccc(F)cc2)c(-c2ccnc(NC3CCN(Cc4ccccc4)CC3)c2)n1C [Example 5, (1-Benzyl-piperidin-4-yl)-{4-[5-(4-fluoro-phenyl)-3-methyl-2-methylsulfanyl-3H-imidazol-4-yl]-pyridin-2-yl}-amine]",1000 to 10000 nM
5,"COCCn1c(SC)nc(-c2ccc(F)cc2)c1-c1ccnc(NC(=O)C2CCOCC2)c1 [Example 32, Tetrahydro-pyran-4-carboxylic acid {4-[5-(4-fluoro-phenyl)-3-(2-methoxy-ethyl)-2-methylsulfanyl-3H-imidazol-4-yl]-pyridin-2-yl}-amide]",< 1000 nM
6,"COCCn1c(SC)nc(-c2ccc(F)cc2)c1-c1ccnc(NCC(C)O)c1 (centres unmarked) [Example 14, 1-{4-[5-(4-Fluoro-phenyl)-3-(2-methoxy-ethyl)-2-methylsulfanyl-3H-imidazol-4-yl]-pyridin-2-ylamino}-propan-2-ol]",< 1000 nM
7,"CSc1nc(-c2ccc(F)cc2)c(-c2ccnc(NC3CCCCC3=O)c2)n1C (centres unmarked) [Example 28, 2-{4-[5-(4-Fluoro-phenyl)-3-methyl-2-methylsulfanyl-3H-imidazol-4-yl]-pyridin-2-ylamino}-cyclohexanone]",< 1000 nM
8,COCCn1c(S(C)(=O)=O)nc(-c2ccc(F)cc2)c1-c1ccnc(NC2CCCCC2O)c1 (centres unmarked) [35 (4)],1000 to 10000 nM
9,"CSc1nc(-c2ccc(F)cc2)c(-c2ccnc(NCC(C)O)c2)n1C (centres unmarked) [Example 13, 1-{4-[5-(4-Fluoro-phenyl)-3-methyl-2-methylsulfanyl-3H-imidazol-4-yl]-pyridin-2-ylamino}-propan-2-ol]",< 1000 nM
10,"COCCn1c([S+](C)[O-])nc(-c2ccc(F)cc2)c1-c1ccnc(NC(=O)C2CCOCC2)c1 (centres unmarked) [Example 33, Tetrahydro-pyran-4-carboxylic acid {4-[5-(4-fluoro-phenyl)-2-methanesulfinyl-3-(2-methoxy-ethyl)-3H-imidazol-4-yl]-pyridin-2-yl}-amide]",< 1000 nM
11,"COCCn1c(SC)nc(-c2ccc(F)cc2)c1-c1ccnc(NC2CCCCC2O)c1 (centres unmarked) [Example 19, 2-{4-[5-(4-Fluoro-phenyl)-3-(2-methoxy-ethyl)-2-methylsulfanyl-3H-imidazol-4-yl]-pyridin-2-ylamino}-cyclohexanol]",1000 to 10000 nM
12,"COCCn1c(SC)nc(-c2ccc(F)cc2)c1-c1ccnc(NC2CCN(Cc3ccccc3)CC2)c1 [Example 6, (1-Benzyl-piperidin-4-yl)-{4-[5-(4-fluoro-phenyl)-3-(2-methoxy-ethyl)-2-methylsulfanyl-3H-imidazol-4-yl]-pyridin-2-yl}-amine]",1000 to 10000 nM
13,"COCCn1c([S+](C)[O-])nc(-c2ccc(F)cc2)c1-c1ccnc(NC2CCN(Cc3ccccc3)CC2)c1 (centres unmarked) [Example 12, (1-Benzyl-piperidin-4-yl)-{4-[5-(4-fluoro-phenyl)-2-methanesulfinyl-3-(2-methoxy-ethyl)-3H-imidazol-4-yl]-pyridin-2-yl}-amine]",1000 to 10000 nM
14,CCN1CCCC1CNc1cc(-c2c(-c3ccc(F)cc3)nc(SC)n2CCOC)ccn1 (centres unmarked) [Example 2],< 1000 nM
15,COCCn1c(SC)nc(-c2ccc(F)cc2)c1-c1ccnc(NCC2CCCCC2O)c1 (centres unmarked) [35 (1)],< 1000 nM
16,"CSc1nc(-c2ccc(F)cc2)c(-c2ccnc(NC3CCCCC3O)c2)n1C (centres unmarked) [Example 17, 2-{4-[5-(4-Fluoro-phenyl)-3-methyl-2-methylsulfanyl-3H-imidazol-4-yl]-pyridin-2-ylamino}-cyclohexanol]",1000 to 10000 nM
17,"COCCn1c(SC)nc(-c2ccc(F)cc2)c1-c1ccnc(NC2CCC(O)CC2)c1 (centres unmarked) [Example 16, 4-{4-[5-(4-Fluoro-phenyl)-3-(2-methoxy-ethyl)-2-methylsulfanyl-3H-imidazol-4-yl]-pyridin-2-ylamino}-cyclohexanol]",< 1000 nM
18,COCCn1c(SC)nc(-c2ccc(F)cc2)c1-c1ccnc(NC2CCCCC2O)c1 (centres unmarked) [Example 35 (2)],< 1000 nM
19,"CCN1CCCC1CNc1cc(-c2c(-c3ccc(F)cc3)nc(SC)n2C)ccn1 (centres unmarked) [Example 1, (1-Ethyl-pyrrolidin-2-ylmethyl)-{4-[5-(4-fluoro-phenyl)-3-methyl-2-methylsulfanyl-3H-imidazol-4-yl]-pyridin-2-yl}-amine]",> 10000 nM

# Source: US20100069436A1, “IMIDAZOLE COMPOUNDS HAVING AN ANTIINFLAMMATORY EFFECT” (Merckle, priority 2006, published 2010)
